Results published in patent publication US9085463B2, “Water-soluble functionalized fullerenes” (Marelle, LLC, priority 2011, dated 2015).

Legend:
[1] = DPPH radical-scavenging method (anti-oxidant potential); assay type: biochemical; settings: for RD(.05 mg): amount of compound needed to deplete .05 mg of DPPH: calculated from slope; for Slope (anti-oxidant potential): mg DPPH remaining vs mg compound, linear regression, absorbance at 517 nm
Text: The ability of a component to serve as an anti-oxidant is readily tested by a variety of methods known in the art. These analytical methods measure the radical-scavenging activity of anti-oxidants against free radicals, such as the 1,1-diphenyl-2-picrylhydrazyl (DPPH) radical. […] This absorbance disappears as the DPPH is consumed upon reduction by an antiradical compound. The disappearance of this so-called absorbance band can be followed by spectroscopic methods allowing quantitative measurements of the compound's anti-oxidant ability.
Stock solutions of 100 micromolar DPPH were prepared using 3.9 milligrams (mg) of DPPH dissolved in 100 milliliters (ml) of solution using spectroscopic grade methanol (MeOH). 3.5 ml of the DPPH solution was combined with 0.5 ml of test solutions of various concentrations of the anti-oxidant compounds. The commercial anti-oxidants, which are not water soluble, were dissolved in MeOH while their functionalized fullerene derivatives were dissolved in distilled water. The test mixture was immediately placed in a spectrometer which measured the absorbance of the mixture at 517 nm at various intervals over periods of 6 to 8 hours. Typically 4 or more samples of the anti-oxidants at various concentrations were tested. The concentrations, expressed in milligrams per milliliter (mg/ml), were selected so that some of the samples would consume more than 50% of the DPPH and others would not.
The percent of DPPH remaining at a given time interval was calculated using the following equation:
[formula] ACt is the absorbance value to the compound/DPPH solution at time t, ADPPHi is the initial value of the DPPH control blank at time t=0, and ADPPHt′ is the absorbance value of the control blank DPPH at time t=t′. The term (ADPPHt−ADPPHt′) in the above equation is the absorbance correction factor for DPPH radical decay as measured in the control blank.
The % DPPHram was recorded for each of the four concentrations at two different reaction times (30 minutes and 300 minutes). The % DPPHram was converted to milligrams (mg) of DPPH remaining and plotted as a function of milligrams (mg) of compound for each of the two reaction times. Linear regressions were calculated for each of the data sets according to the following formula: CDPPH=mt·Cc+CDPPHo
CDPPH is the mass of DPPH remaining at time t=30 minutes and time t=300 minutes, Co is the mass of the compound in the cuvette, CDPPHo is the initial concentration of the DPPH in the cuvette, and mt is the slope determined by the linear regression. The slope was used as a parameter to estimate the anti-oxidant potential of the compound. […] FIGS. 30-34 illustrate the slope (anti-oxidant potential) of commercial anti-oxidants and their functionalized fullerenol derivatives (indicated with FF in the legends).
The slope for each compound was tabulated and the amount (mg) of compound needed to deplete 0.05 mg of DPPH was calculated (see Table 1).

[2] = UV absorbing ability (UV/Vis absorbance of solutions); assay type: physicochemical; settings: 0.5 mg/ml, avobenzone in acetone, functionalized fullerene in distilled water
Method: The ability of a component to absorb UV light is readily tested using spectroscopic instruments, such as a UV/Vis spectrophotometer.
5.0 milligrams (mg) of avobenzone, a UV light absorbing substance widely used in sunscreens, was dissolved in 10 milliliters (ml) of reagent grade acetone. […] UV absorbance (A) of the resulting solutions was measured at 290 nm, 320 nm, and 400 nm.

Row | Absorbance (A) 290 nm ([2]; 290 nm) | Absorbance (A) 320 nm ([2]; 320 nm) | Absorbance (A) 400 nm ([2]; 400 nm) | Structure (SMILES) | RD(.05 mg): amount of compound needed to deplete .05 mg of DPPH ([1]; 30 minutes reaction time) [mg] | Slope (anti-oxidant potential) ([1]; 30 minutes reaction time) [mg/mg] | RD(.05 mg): amount of compound needed to deplete .05 mg of DPPH ([1]; 300 minutes reaction time) [mg] | Slope (anti-oxidant potential) ([1]; 300 minutes reaction time) [mg/mg]
1 |  |  |  | CCCCC/C=C\C/C=C\C/C=C\C/C=C\CCCC(=O)O [Arachidonic Acid, arachidonic acid, reference compound] | 250.00 | -0.0002 | 45.45 | -0.0011
2 | 0.297 | 0.521 | 0.376 | COc1ccc(C(=O)CC(=O)c2ccc(C(C)(C)C)cc2)cc1 [Avobenzone, avobenzone] |  |  |  | 
3 |  |  |  | COC1=C(OC)C(=O)C(C/C=C(\C)CC/C=C(\C)CC/C=C(\C)CC/C=C(\C)CC/C=C(\C)CC/C=C(\C)CC/C=C(\C)CC/C=C(\C)CC/C=C(\C)CCC=C(C)C)=C(C)C1=O [Coenzyme Q10, coenzyme Q10, reference compound] | 125.00 | -0.0004 | 23.81 | -0.0021
4 |  |  |  | CCCCC/C=C\C/C=C\CCCCCCCC(=O)O [Linoleic Acid, linoleic acid, reference compound] | 6250.00 | -0.000008 | 100.00 | -0.0005
5 |  |  |  | CC/C=C\C/C=C\C/C=C\CCCCCCCC(=O)O [Linolenic Acid, α-linolenic acid, reference compound] | 250.00 | -0.0002 | 45.45 | -0.0011
